The source of these data is patent US4657924A, “Nafazatrom as a lipoxygenase inhibitor” (priority 1983, dated 1987).

In assay [1] the test system is synthesis of various prostaglandins in RSVM and BAM. The assay is described as follows: Prostaglandin synthesis in microsomes of sheep seminal vesicles (RSVM) and cattle aortas (BAM). It counts as biochemical. The procedure: The specific PGI2 -stimulating action of nafazatrom was shown in vitro in a mixture of microsomes from the seminal vesicles of sheep (RSVM) and the aortas of cattle (BAM) (compare F. Cottee et al., Protaglandins, 14, 413, 1977). ^3 H-arachidonic acid was incubated with a mixture of RSVM and BAM in the presence of 3.10^-5 g/ml of nafazatrom at 25° C. for 10 minutes. The reaction was stopped by acidification to pH 3.5. The fatty acid metabolites were extracted with ethyl acetate. The ethyl acetate was evaporated off under N2, the residue was taken up in CH3 OH/CHCl3 (1:1) and the mixture was discharged on thin layer chromatography plastic sheets. Separation was effected with a mobile phase mixture of ethyl acetate/glacial acetic acid/isooctane/H2 O (110:20:50:10; organic phase) (P. Needleman et al., The Journal of Clinical Investigation 1978, 61, 839-849). The distribution of the radioactivity was measured by means of a radio scanner.

Assay [2] has as its system rabbit hearts. The assay is described as follows: Rabbit hearts perfused by the method of Langendorff, perfusion pressure. Here is the method: The heart was removed from the rabbits (up to about 2 kg) under Nembutal anaesthesia and cannulas were attached at the aorta and at the a.pulmonalis. To measure the isovolumetric contractions, a silicon rubber balloon filled with liquid was inserted into the left ventricle via the left auricle. The balloon was connected to a liquid sensor (Statham P 23 Db) via a liquid bridge. The perfusion pressure was recorded with a pressure sensor, which was connected to the perfusion system via T-piece before the aorta cannula of the heart. The contraction force and perfusion pressure were recorded with a Gould 2600 S high-speed recorder. The hearts were stimulated electrically at a frequency of 180/minute and a stimulation duration of 5 mseconds.
Perfusion of the hearts was effected with Krebs-Henseleit solution (KH solution), which was gassed with carbogen (95% of O2, 5% of CO2) or with a gas mixture of 2% of O2, 5.6% of CO2 and the remainder N2. The perfusion volume was 20 ml/minute and was adjusted by a roller pump (Desaga, 132100). The nafazatrom and the platelet suspensions (obtained from the same rabbit from which the heart is removed) were added with the aid of infusion pumps (roller pumps, Braun-Melsungen), the solution or suspension being infused at a flow rate of 0.2 or 0.1 ml/minute from an infusion syringe via a Taigon tube and a fine cannula into the inlet tube shortly before the heart. The final concentration of the platelets was 1×10^7 /ml of KH solution. The solution flowing out of the heart (cannula in the a.pulmonalis) was collected periodically, under ice-cooling. To measure the concentrations of thromboxan as TXB2 and of prostacyclin as 6-keto-PGF1^α, determination of which was effected with the aid of radioimmunoassay, aliquot parts by volume were freeze-dried and taken up in one tenth of the original volume of water.

Assay [3] has as its system ischaemia-induced ECG changes. Briefly: Animal experiments: ECG changes in ischaemia. In kind it is in vivo.
Assay [4] in a line: Antiasthmatic, inflammation-inhibiting and gastro-protective action. The following applies: in words.
The test system of assay [5] is hydroperoxidase portion of cyclooxygenase. To be noted: T. E. Eling et al., 1982; cited from earlier work.
The mark [6] stands for this setting: 3.10^-5 g/ml, 25° C., 10 minutes.

SMILES strings stand for the structures.

For the molecule `CC1=NN(CCOc2ccc3ccccc3c2)C(=O)C1` [nafazatrom, 3-methyl-1-[2-(2-naphthyloxy)-ethyl]-2-pyrazolin-5-one], in assay [1] (setting [6]), the “Increase in concentration (in %) in comparison with the control, 6-Keto-PGF1 α” value was 300-400%; the “Increase in concentration (in %) in comparison with the control, PGD2” value amounted to 0%; the “Increase in concentration (in %) in comparison with the control, PGE2” value turned out to be 0%; the “Increase in concentration (in %) in comparison with the control, PGF2 α” value was 0%. In assay [1] (in words), the “synthesis of prostacyclin (PGI2)” value is given as “specifically stimulates”. Further, in assay [1] (in words, see Example 2), the “synthesis of the prostaglandins having a vasoconstricting action and of TXA2” value is reported as “not influenced”. The “Perfusion pressure in % of the blank value, 3rd phase” value in assay [2] (as 2nd phase, 1.10^-5 g/ml of nafazatrom, 5 minutes) was determined as 80%. For the same molecule, in assay [2] (as 3rd phase (reoxygenation), 1.10^-5 g/ml), the “Perfusion pressure in % of the blank value, 5th phase” value is listed as 75%. Moreover, the “Perfusion pressure in % of the blank value, 4th phase” value in assay [2] (as 3rd phase, 2% of O2 (hypoxia), 10 minutes, 1.10^-5 g/ml) was 63%. The “rise in perfusion pressure caused by addition of platelets” value in assay [2] (first and second carbogen phase) was “significantly inhibits”. The “Perfusion pressure in % of the blank value, 2nd phase” value in assay [2] (normoxia, carbogen, 1.10^7 platelets/ml, 5 minutes, before addition of nafazatrom) stood at 139%. The “Perfusion pressure in % of the blank value, 1st phase” value in assay [2] (preliminary phase, carbogen, before addition of nafazatrom) stood at 100%. In assay [3] (in vivo), the “R-wave in the ECG of the peripheral extremities” value was “increases less sharply and re-forms more rapidly”; the “ST intervals compared with the controls” value was “changed less than in the controls”. The “ischaemia-induced rise in the ST zone” value in assay [3] (indication of infarction) was “reduces the ischaemia-induced rise in the ST zone”. The “antiasthmatic, inflammation-inhibiting and gastro-protective action” value in assay [4] is “marked antiasthmatic, inflammation-inhibiting and gastro-protective action”. Further, the “action on hydroperoxidase portion of cyclooxygenase; conversion of arachidonic acid into PGH2” value in assay [5] was “acts as a reducing cofactor of the hydroperoxidase portion of cyclooxygenase and accelerates the conversion of arachidonic acid into PGH2”.
